# Measurements as given in publication PMC7862291, “Full-length in meso structure and mechanism of rat kynurenine 3-monooxygenase inhibition” (Communications Biology, 2021).
# Like-named read-outs stand apart in the source and are kept apart here.
# Legend:
# [1] = Pharmacokinetic (brain penetration) study in rats; type: in vivo; settings: Sprague-Dawley Crl:CD(SD), rat, male SD rats, 10 mg/kg ip, 1 h after a single administration
# Description: Brain penetration studies were conducted in non-fasted male SD rats [Sprague-Dawley rats Crl:CD(SD), 8 weeks of age]. Compound 1 was intraperitoneally (ip) administered at 10 mg/kg in a solution of saline containing 10% dimethylformamide, 10% propylene glycol, and 4% 1 normality (N) sodium hydrate. […] Blood and brain were collected at 1 h after a single administration. The test compound in plasma samples or brain samples was extracted by deproteination with acetonitrile, and then analysed using LC-MS/MS.
# [2] = target: T1, hKMO (Homo sapiens, UniProt O15229); experiment: Surface plasmon resonance; type: binding; settings: SPR, immobilised hKMO, single-cycle kinetics
# T1 construct: purchased Origene
# T1 sequence (O15229 whole entry): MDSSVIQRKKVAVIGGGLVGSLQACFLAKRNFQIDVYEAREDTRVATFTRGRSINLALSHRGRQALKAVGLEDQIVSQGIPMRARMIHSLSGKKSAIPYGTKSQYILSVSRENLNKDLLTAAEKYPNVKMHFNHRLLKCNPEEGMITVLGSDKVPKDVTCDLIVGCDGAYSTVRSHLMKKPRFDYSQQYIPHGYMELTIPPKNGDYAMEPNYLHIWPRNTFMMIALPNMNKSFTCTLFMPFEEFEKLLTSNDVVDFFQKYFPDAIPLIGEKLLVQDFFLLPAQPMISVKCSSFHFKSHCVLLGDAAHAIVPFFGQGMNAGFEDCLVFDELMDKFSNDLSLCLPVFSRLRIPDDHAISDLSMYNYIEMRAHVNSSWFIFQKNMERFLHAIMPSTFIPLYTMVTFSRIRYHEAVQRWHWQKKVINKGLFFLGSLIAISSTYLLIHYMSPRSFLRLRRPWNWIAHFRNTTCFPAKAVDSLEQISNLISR
# Description: Surface plasmon resonance experiments were performed using a Biacore 8K+ (GE Healthcare) instrument. A 20-μg/mL concentration of hKMO (Origene) was immobilised on a Series S Sensor Chip CM5 (GE Healthcare) by NHS/EDC amine coupling. The Rmax was 13,500 resonance units (RU) upon binding.
# Five-fold serial dilutions of 50 nM compound 3 finalised in 2% DMSO were made, and run in a buffer containing HBS-P+ (GE Healthcare), 1 mM DTT, and 2% DMSO using single-cycle kinetics.
# Surface plasmon resonance data were analysed using Biacore Insight Evaluation software. All fits used a simple 1:1 Langmuir binding model showing reasonable fit and low fit χ^2 values.
SMILES,Kp at 1 h ([1]; brain/plasma),"concentration at 1 h ([1]; brain, read-out: Exposure in brain)","concentration at 1 h ([1]; plasma, read-out: Exposure in plasma)",Kd [2],koff [2],kon [2]
Cc1cnn(-c2cccc(C(=O)O)c2)c1-c1ccccc1 [Compound 1],0.029,25.4 ng/g,869 ng/mL,–,–,–
Cc1cnn(-c2ccc(OCc3ccccc3)c(C(=O)O)c2)c1-c1ccc(Cl)c(F)c1 [Compound 3],–,–,–,0.039 nM,2.1e-05 s⁻¹,540000 M⁻¹ s⁻¹
